Columns and labels:
Assay type in all cases: ADME
[1] = (§1) The drug is tested on Actinomyces graevenitzii strain: DSM15540 for biotransformation under microaerobic condition. The drug concentrations were measured over 6 timepoints collected between 0 and 12 hours of incubation by liquid-chromatography-coupled mass spectrometry (LC–MS); parameters: dose 5 uM, timepoint 0, 1.5, 3, 6, 9, 12 hours; settings: 5 µM
[2] = (§2) The drug is tested on Lactobacillus gasseri strain: DSM20243 for biotransformation under anaerobic condition. The drug concentrations were measured over 6 timepoints collected between 0 and 12 hours of incubation by liquid-chromatography-coupled mass spectrometry (LC–MS); parameters: dose 5 uM, timepoint 0, 1.5, 3, 6, 9, 12 hours; settings: 5 µM
[3] = as §2, with “the gut metagenome community of A-02 with ENA study accession number: PRJEB31790” for “Lactobacillus gasseri strain: DSM20243”, “7” for “6”; parameters: dose 5 uM, timepoint 0, 0.75, 1.5, 3, 6, 9, 12 hours; settings: 5 µM
[4] = The drug is tested on Streptococcus sanguinis strain: DSM20567 for biotransformation under anaerobic condition. The drug concentrations were measured over 6 timepoints collected between 0 and 12 hours of incubation by liquid-chromatography-coupled mass spectrometry (LC–MS); parameters: dose 5 uM, timepoint 0, 1.5, 3, 6, 9, 12 hours; settings: 5 µM
[5] = as §1, with “the gut metagenome community of T-04 with ENA study accession number: PRJEB31790” for “Actinomyces graevenitzii strain: DSM15540”, “7” for “6”; parameters: dose 5 uM, timepoint 0, 0.75, 1.5, 3, 6, 9, 12 hours; settings: 5 µM
[6] = The drug is tested on Bacteroides fragilis strain: DSM2151 for biotransformation under anaerobic condition. The drug concentrations were measured over 6 timepoints collected between 0 and 12 hours of incubation by liquid-chromatography-coupled mass spectrometry (LC–MS); parameters: dose 5 uM, timepoint 0, 1.5, 3, 6, 9, 12 hours; settings: 5 µM
[7] = The drug is tested on Gemella haemolysans strain: DSM107751 for biotransformation under microaerobic condition. The drug concentrations were measured over 6 timepoints collected between 0 and 12 hours of incubation by liquid-chromatography-coupled mass spectrometry (LC–MS); parameters: dose 5 uM, timepoint 0, 1.5, 3, 6, 9, 12 hours; settings: 5 µM
[8] = The drug is tested on Bifidobacterium longum strain: DSM20088 for biotransformation under anaerobic condition. The drug concentrations were measured over 6 timepoints collected between 0 and 12 hours of incubation by liquid-chromatography-coupled mass spectrometry (LC–MS); parameters: dose 5 uM, timepoint 0, 1.5, 3, 6, 9, 12 hours; settings: 5 µM
[9] = as §1, with “the gut metagenome community of A-09 with ENA study accession number: PRJEB31790” for “Actinomyces graevenitzii strain: DSM15540”, “7” for “6”; parameters: dose 5 uM, timepoint 0, 0.75, 1.5, 3, 6, 9, 12 hours; settings: 5 µM
[10] = as §2, with “the gut metagenome community of A-08 with ENA study accession number: PRJEB31790” for “Lactobacillus gasseri strain: DSM20243”, “7” for “6”; parameters: dose 5 uM, timepoint 0, 0.75, 1.5, 3, 6, 9, 12 hours; settings: 5 µM
[11] = as §2, with “the gut metagenome community of A-06 with ENA study accession number: PRJEB31790” for “Lactobacillus gasseri strain: DSM20243”, “7” for “6”; parameters: dose 5 uM, timepoint 0, 0.75, 1.5, 3, 6, 9, 12 hours; settings: 5 µM
[12] = The drug is tested on Lactobacillus paracasei strain: ATCC27092 for biotransformation under anaerobic condition. The drug concentrations were measured over 6 timepoints collected between 0 and 12 hours of incubation by liquid-chromatography-coupled mass spectrometry (LC–MS); parameters: dose 5 uM, timepoint 0, 1.5, 3, 6, 9, 12 hours; settings: lacticaseibacillus paracasei, 5 µM
[13] = The drug is tested on Bacteroides caccae strain: DSM19024 for biotransformation under anaerobic condition. The drug concentrations were measured over 6 timepoints collected between 0 and 12 hours of incubation by liquid-chromatography-coupled mass spectrometry (LC–MS); parameters: dose 5 uM, timepoint 0, 1.5, 3, 6, 9, 12 hours; settings: 5 µM
[14] = The drug is tested on Lactobacillus fermentum strain: DSM20052 for biotransformation under anaerobic condition. The drug concentrations were measured over 6 timepoints collected between 0 and 12 hours of incubation by liquid-chromatography-coupled mass spectrometry (LC–MS); parameters: dose 5 uM, timepoint 0, 1.5, 3, 6, 9, 12 hours; settings: limosilactobacillus fermentum, 5 µM
[15] = as §1, with “the gut metagenome community of A-03 with ENA study accession number: PRJEB31790” for “Actinomyces graevenitzii strain: DSM15540”, “7” for “6”; parameters: dose 5 uM, timepoint 0, 0.75, 1.5, 3, 6, 9, 12 hours; settings: 5 µM
[16] = The drug is tested on Bacteroides uniformis strain: DSM6597 for biotransformation under anaerobic condition. The drug concentrations were measured over 6 timepoints collected between 0 and 12 hours of incubation by liquid-chromatography-coupled mass spectrometry (LC–MS); parameters: dose 5 uM, timepoint 0, 1.5, 3, 6, 9, 12 hours; settings: 5 µM
[17] = The drug is tested on Collinsella aerofaciens strain: DSM3979 for biotransformation under anaerobic condition. The drug concentrations were measured over 6 timepoints collected between 0 and 12 hours of incubation by liquid-chromatography-coupled mass spectrometry (LC–MS); parameters: dose 5 uM, timepoint 0, 1.5, 3, 6, 9, 12 hours; settings: 5 µM
[18] = as §1, with “the gut metagenome community of T-05 with ENA study accession number: PRJEB31790” for “Actinomyces graevenitzii strain: DSM15540”, “7” for “6”; parameters: dose 5 uM, timepoint 0, 0.75, 1.5, 3, 6, 9, 12 hours; settings: 5 µM
[19] = as §1, with “the gut metagenome community of P-02 with ENA study accession number: PRJEB31790” for “Actinomyces graevenitzii strain: DSM15540”, “7” for “6”; parameters: dose 5 uM, timepoint 0, 0.75, 1.5, 3, 6, 9, 12 hours; settings: 5 µM
[20] = The drug is tested on Clostridium scindens strain: DSM5676 for biotransformation under anaerobic condition. The drug concentrations were measured over 6 timepoints collected between 0 and 12 hours of incubation by liquid-chromatography-coupled mass spectrometry (LC–MS); parameters: dose 5 uM, timepoint 0, 1.5, 3, 6, 9, 12 hours; settings: 5 µM
[21] = as §2, with “the gut metagenome community of P-03 with ENA study accession number: PRJEB31790” for “Lactobacillus gasseri strain: DSM20243”, “7” for “6”; parameters: dose 5 uM, timepoint 0, 0.75, 1.5, 3, 6, 9, 12 hours; settings: 5 µM
[22] = as §2, with “the gut metagenome community of P-02 with ENA study accession number: PRJEB31790” for “Lactobacillus gasseri strain: DSM20243”, “7” for “6”; parameters: dose 5 uM, timepoint 0, 0.75, 1.5, 3, 6, 9, 12 hours; settings: 5 µM
[23] = as §2, with “the gut metagenome community of T-05 with ENA study accession number: PRJEB31790” for “Lactobacillus gasseri strain: DSM20243”, “7” for “6”; parameters: dose 5 uM, timepoint 0, 0.75, 1.5, 3, 6, 9, 12 hours; settings: 5 µM
[24] = The drug is tested on Lactobacillus paracasei strain: ATCC27092 for biotransformation under microaerobic condition. The drug concentrations were measured over 6 timepoints collected between 0 and 12 hours of incubation by liquid-chromatography-coupled mass spectrometry (LC–MS); parameters: dose 5 uM, timepoint 0, 1.5, 3, 6, 9, 12 hours; settings: lacticaseibacillus paracasei, 5 µM
[25] = The drug is tested on Eubacterium rectale strain: DSM17629 for biotransformation under anaerobic condition. The drug concentrations were measured over 6 timepoints collected between 0 and 12 hours of incubation by liquid-chromatography-coupled mass spectrometry (LC–MS); parameters: dose 5 uM, timepoint 0, 1.5, 3, 6, 9, 12 hours; settings: agathobacter rectalis, 5 µM
[26] = The drug is tested on Dorea formicigenerans strain: DSM3992 for biotransformation under anaerobic condition. The drug concentrations were measured over 6 timepoints collected between 0 and 12 hours of incubation by liquid-chromatography-coupled mass spectrometry (LC–MS); parameters: dose 5 uM, timepoint 0, 1.5, 3, 6, 9, 12 hours; settings: 5 µM
[27] = as §2, with “the gut metagenome community of T-04 with ENA study accession number: PRJEB31790” for “Lactobacillus gasseri strain: DSM20243”, “7” for “6”; parameters: dose 5 uM, timepoint 0, 0.75, 1.5, 3, 6, 9, 12 hours; settings: 5 µM
[28] = The drug is tested on Bacteroides vulgatus strain: DSM1447 for biotransformation under anaerobic condition. The drug concentrations were measured over 6 timepoints collected between 0 and 12 hours of incubation by liquid-chromatography-coupled mass spectrometry (LC–MS); parameters: dose 5 uM, timepoint 0, 1.5, 3, 6, 9, 12 hours; settings: phocaeicola vulgatus, 5 µM
[29] = as §1, with “the gut metagenome community of A-02 with ENA study accession number: PRJEB31790” for “Actinomyces graevenitzii strain: DSM15540”, “7” for “6”; parameters: dose 5 uM, timepoint 0, 0.75, 1.5, 3, 6, 9, 12 hours; settings: 5 µM
[30] = The drug is tested on Blautia hansenii strain: DSM20583 for biotransformation under anaerobic condition. The drug concentrations were measured over 6 timepoints collected between 0 and 12 hours of incubation by liquid-chromatography-coupled mass spectrometry (LC–MS); parameters: dose 5 uM, timepoint 0, 1.5, 3, 6, 9, 12 hours; settings: 5 µM

| Bacterial Biotransformation [1] | Bacterial Biotransformation [2] | Bacterial Biotransformation [3] | Bacterial Biotransformation [4] | Bacterial Biotransformation [5] | Bacterial Biotransformation [6] | Bacterial Biotransformation [8] | Bacterial Biotransformation [9] | Bacterial Biotransformation [10] | Bacterial Biotransformation [11] | Bacterial Biotransformation [12] | Bacterial Biotransformation [13] | Bacterial Biotransformation [14] | Bacterial Biotransformation [15] | Bacterial Biotransformation [16] | Bacterial Biotransformation [17] | Bacterial Biotransformation [18] | Bacterial Biotransformation [19] | Bacterial Biotransformation [20] | SMILES | Bacterial Biotransformation [7] | also measured |
| --- | --- | --- | --- | --- | --- | --- | --- | --- | --- | --- | --- | --- | --- | --- | --- | --- | --- | --- | --- | --- | --- |
| Compound NOT metabolized | Compound NOT metabolized | Compound NOT metabolized | Compound NOT metabolized | Compound NOT metabolized | Compound NOT metabolized | Compound NOT metabolized | Compound NOT metabolized | Compound NOT metabolized | Compound NOT metabolized | Compound NOT metabolized | Compound NOT metabolized | Compound NOT metabolized | Compound NOT metabolized | Compound NOT metabolized | Compound NOT metabolized | Compound metabolized | Compound NOT metabolized | Compound NOT metabolized | COc1c(C)c2c(c(O)c1C/C=C(\C)CCC(=O)O)C(=O)OC2 [MYCOPHENOLIC ACID] | Compound NOT metabolized | Bacterial Biotransformation [21]: Compound NOT metabolized; Bacterial Biotransformation [22]: Compound NOT metabolized; Bacterial Biotransformation [23]: Compound metabolized; Bacterial Biotransformation [24]: Compound NOT metabolized; Bacterial Biotransformation [25]: Compound NOT metabolized; Bacterial Biotransformation [26]: Compound NOT metabolized; Bacterial Biotransformation [27]: Compound NOT metabolized; Bacterial Biotransformation [28]: Compound NOT metabolized; Bacterial Biotransformation [29]: Compound NOT metabolized; Bacterial Biotransformation [30]: Compound NOT metabolized |
| Compound NOT metabolized | Compound NOT metabolized | Compound metabolized | Compound NOT metabolized | Compound NOT metabolized | Compound NOT metabolized | Compound NOT metabolized | Compound metabolized | Compound metabolized | Compound metabolized | Compound NOT metabolized | Compound NOT metabolized | Compound NOT metabolized | Compound metabolized | Compound NOT metabolized | Compound NOT metabolized | Compound metabolized | Compound metabolized | Compound metabolized | C[C@]12CCC(=O)C=C1CC[C@@H]1[C@@H]2C(=O)C[C@@]2(C)[C@H]1CC[C@]2(O)C(=O)CO [CORTISONE] | Compound NOT metabolized | Bacterial Biotransformation [21]: Compound metabolized; Bacterial Biotransformation [22]: Compound metabolized; Bacterial Biotransformation [23]: Compound metabolized; Bacterial Biotransformation [24]: Compound NOT metabolized; Bacterial Biotransformation [25]: Compound NOT metabolized; Bacterial Biotransformation [26]: Compound NOT metabolized; Bacterial Biotransformation [27]: Compound NOT metabolized; Bacterial Biotransformation [28]: Compound NOT metabolized; Bacterial Biotransformation [29]: Compound metabolized; Bacterial Biotransformation [30]: Compound NOT metabolized |
| Compound NOT metabolized | Compound NOT metabolized | Compound metabolized | Compound NOT metabolized | Compound NOT metabolized | Compound NOT metabolized | Compound NOT metabolized | Compound metabolized | Compound metabolized | Compound metabolized | Compound NOT metabolized | Compound NOT metabolized | Compound NOT metabolized | Compound NOT metabolized | Compound NOT metabolized | Compound NOT metabolized | Compound NOT metabolized | Compound NOT metabolized | Compound metabolized | C[C@H]1C[C@H]2[C@@H]3CCC4=CC(=O)C=C[C@]4(C)[C@@]3(F)[C@@H](O)C[C@]2(C)[C@@]1(O)C(=O)CO [BETAMETHASONE] | Compound NOT metabolized | Bacterial Biotransformation [21]: Compound metabolized; Bacterial Biotransformation [22]: Compound metabolized; Bacterial Biotransformation [23]: Compound NOT metabolized; Bacterial Biotransformation [24]: Compound NOT metabolized; Bacterial Biotransformation [25]: Compound NOT metabolized; Bacterial Biotransformation [26]: Compound NOT metabolized; Bacterial Biotransformation [27]: Compound NOT metabolized; Bacterial Biotransformation [28]: Compound NOT metabolized; Bacterial Biotransformation [29]: Compound metabolized; Bacterial Biotransformation [30]: Compound NOT metabolized |
